Test results published in patent US20050048490A1, “Proteins associated with cell growth, differentiation, and death” (incyte corp., priority 2002, published 2005).

Legend:
SEQ ID NO:96 = assay: Microarray expression analysis, steroid-treated versus untreated C3A cells; assay type: cell-based, human; settings: early confluent C3A cells treated at 1, 10, and 100 μM for 1, 3, and 6 hours
Method: (§1) Total RNA is isolated from tissue samples using the guanidinium thiocyanate method and poly(A)^+ RNA is purified using the oligo-(dT) cellulose method. Each poly(A)^+ RNA sample is reverse transcribed using MMLV reverse-transcriptase, 0.05 pg/μl oligo-(dT) primer (21mer), 1× first strand buffer, 0.03 units/μl RNase inhibitor, 500 μM dATP, 500 μM dGTP, 500 μM dTTP, 40 μM dCTP, 40 μM dCTP-Cy3 (BDS) or dCTP-Cy5 (Amersham Biosciences). The reverse transcription reaction is performed in a […] containing 200 ng poly(A)^+ RNA with GEMBRIGHT kits (Incyte Genomics). Specific control poly(A)^+ RNAs are synthesized by in vitro transcription from non-coding yeast genomic DNA. […]
(§2) Sequences of the present invention are used to generate array elements. […] Array elements are amplified in thirty cycles of PCR from an initial quantity of 1-2 ng to a final quantity greater than 5 μg. […]
(§3) Reporter-labeled hybridization complexes are detected with a microscope equipped with an Innova 70 mixed gas 10 W laser (Coherent, Inc., Santa Clara Calif.) capable of generating spectral lines at 488 nm for excitation of Cy3 and at 632 nm for excitation of Cy5. […]
(§4) A grid is superimposed over the fluorescence signal image such that the signal from each spot is centered in each element of the grid. […]

SEQ ID NO:94 = assay: Microarray expression analysis, activated versus untreated Jurkat cells; assay type: cell-based, human; settings: Jurkat cells treated with combinations of graded doses of PMA (5 nM-1 μM) and ionomycin (50 ng/ml-10μ/ml), 1 hour time point
Method: as §1, §2, §3, §4

SEQ ID NO:102 = assay: Microarray expression analysis, TNF-α treated versus untreated HUVECs; assay type: cell-based, human; settings: HUVECs at 85% confluence treated for 0.33, 0.66, 1, 4, 8, 24, 48, and 72 hours, versus untreated HUVECs (0 hour)
Method: as §1, §2, §3, §4

SEQ ID NO:101 = assay: as above; assay type: cell-based, human; settings: HUVECs at 85% confluence treated for 0.33, 0.66, 1, 4, 8, 24, 48, and 72 hours, versus untreated HUVECs (0 hour)
Method: as §1, §2, §3, §4

SEQ ID NO:104 = assay: Microarray expression analysis, preadipocytes exposed to differentiation factors versus untreated; assay type: cell-based; settings: human preadipocytes treated with human insulin and PPAR-γ agonist for 3 days, then insulin
Method: as §1, §2, §3, §4

| Molecule | expression of SEQ ID NO:96 (SEQ ID NO:96) | expression of SEQ ID NO:94 (SEQ ID NO:94) | further results |
| --- | --- | --- | --- |
| 6-methyl-17-hydroxyprogesterone [medroxyprogesterone] | decreased expression |  |  |
| CCCCCCCCCCCCCC(=O)O[C@@H]1[C@@H](C)[C@@]2(O)[C@@H](C=C(CO)C[C@]3(O)C(=O)C(C)=C[C@@H]23)[C@@H]2C(C)(C)[C@]12OC(C)=O [PMA, Phorbol myristate acetate] |  | decreased expression |  |
| C[C@H]1C[C@H]2[C@@H]3CCC4=CC(=O)C=C[C@]4(C)[C@@]3(Cl)[C@@H](O)C[C@]2(C)[C@@]1(O)C(=O)CO [beclomethasone, Beclomethasone] | decreased expression |  |  |
| C[C@H](CCC(=O)O)C[C@H](C)C[C@H](C)C(=O)/C=C(\O)[C@H](C)C[C@H](C)C/C=C/[C@@H](C)[C@@H](O)[C@@H](C)[C@@H](O)C[C@@H]1CC[C@@](C)([C@H]2CC[C@@](C)([C@@H](C)O)O2)O1 [ionomycin, Ionomycin] |  | decreased expression |  |
| TNF-α |  |  | expression of SEQ ID NO:102 (SEQ ID NO:102): decreased expression; expression of SEQ ID NO:101 (SEQ ID NO:101): decreased expression |
| human insulin: differentiation factor used on human preadipocytes |  |  | expression of SEQ ID NO:104 (SEQ ID NO:104): decreased expression |
